In assay [1] the target is STIM1 and Orai1 in HEK293 cells (Homo sapiens, UniProt Q96D31). The note with it: STIM1 and Orai1 co-expression; cited from earlier work.
The target of assay [2] is T1, recombinant human STIM1 and Orai1 (HEK-293 stable cells; JR251) (Homo sapiens, UniProt Q96D31).
T1 construct: c-myc (C); expressed in transfected cells
The assay can be described thus: Fluorescence-based assay of store-operated calcium entry in Orai1/STIM1 stable cells. The note with it: 50% inhibition of Peak-Basal signal. In kind it is cell-based. The protocol: A. Fluorescence-Based Assay of Store-Operated Calcium Entry in Orai1/STIM1 Stable Cells.
Cells stably expressing recombinant human STIM1 and Orai1 were generated by transfecting a human Orai1 expression plasmid (pcDNA3.1-Orai1-cmyc) into HEK-293 cells stably overexpressing human STIM1 (Roos et al. 2005 JCB 169(3): 435-445). Colonies of cells stably expressing both STIM1 and Orai1 proteins were selected and then subcloned by limiting dilution. Cells were cultured at 37° C./6% CO2 in complete medium with 10% FBS and appropriate selection markers.
The day prior to performing the assay Orai1/STIM1 stable cells were plated in 50 μL of complete medium at 90-95% confluence in a 384 well plate. Cells were grown at 37° C./6% CO2 overnight. On the day of the assay, 1.5 μM fluo-4-AM (Invitrogen) in complete medium was added to the cells, which were then incubated for 1 hour at RT. Cells were washed once in Ca^2+-free HBSS (Hank's buffered saline solution) and 35 μl of Ca^2+-free HBSS was added to each well. Test compounds were added to wells in a 10 μL Ca^2+-free HBSS solution, prepared at 4.5× the desired final concentration, and incubated for 30 minutes at RT. The initial baseline fluorescence signal was then measured with a FLIPR^384 (Molecular Devices) plate reader. Calcium entry was initiated by adding 5 μl of 10×CaCl2 (10 mM) in HBSS, and changes in cellular fluorescence were measured with the FLIPR^384 plate reader. In each well, the magnitude of the fluorescence signal as a result of calcium entry into the cell was determined by calculating the difference between the peak fluorescence signal measured after calcium addition and the initial baseline fluorescence signal (designated Peak-Basal). IC50 values were typically calculated as the concentration that inhibited 50% of the Peak-Basal signal (Table A).

Assay [3] deals with RBL-2H3 cells. The assay can be described thus: Fluorescence-based assay of store-operated calcium entry in RBL-2H3 cells. It is filed as cell-based. To be noted: Rattus norvegicus, 50% inhibition of Upslope, thapsigargin. The protocol: B. Fluorescence-Based Assay of Store-Operated Calcium Entry in RBL-2H3Cells.
RBL-2H3 cells were obtained from ATCC and maintained in complete medium with 10% FBS at 37° C./6% CO2.
The day prior to performing the assay, RBL-2H3 cells are plated in 50 μL of complete medium in a 384 well plate. Cells are grown at 37° C./6% CO2 overnight and grow to 50-60% confluence by the next day. On the assay day, 1.5 μM Fluo-4-AM dye (Invitrogen) in complete medium is added and incubated for 1 hour at RT. Cells are washed twice in Ca^2+-free HBSS buffer and 35 μL Ca^2+-free HBSS buffer is added to each well. 10 μL of a test compound prepared in a Ca^2+-free HBSS solution at 4.5× of the desired concentration is added to a well and incubated for 5 minutes at RT. 10 μL of thapsigargin prepared in a Ca^2+-free HBSS solution at 5.5× of the desired concentration (5.5 uM) is added to each well and incubated for an additional 25 minutes. The initial baseline fluorescence signal is measured with a FLIPR^384 (Molecular Devices) plate reader. 5 μL of 12× calcium in HBSS (12 mM) is added and changes in cellular fluorescence are measured with the FLIPR^384 plate reader. In each well, the change in the fluorescent signal as a function of time due to calcium entry into the cell is determined by calculating the difference between the fluorescent signal measured 7 seconds after calcium addition and the initial baseline fluorescence signal at time zero (t=0). This parameter is designated Upslope. The IC50 value is calculated as the concentration at which 50% of the Upslope is inhibited.

Assay [4] relates to Jurkat cells. To be noted: cited from earlier work.

T1 sequence (Q96D31 whole entry): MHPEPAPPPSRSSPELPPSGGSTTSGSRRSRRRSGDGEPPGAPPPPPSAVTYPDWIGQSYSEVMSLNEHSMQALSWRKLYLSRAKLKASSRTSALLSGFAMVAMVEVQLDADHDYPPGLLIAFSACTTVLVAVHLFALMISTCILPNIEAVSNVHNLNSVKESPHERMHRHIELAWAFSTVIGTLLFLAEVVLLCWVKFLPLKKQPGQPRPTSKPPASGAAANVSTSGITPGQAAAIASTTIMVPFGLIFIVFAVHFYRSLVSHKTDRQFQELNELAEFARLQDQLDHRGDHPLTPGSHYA
STIM1 and Orai1 in HEK293 cells, sequence (Q96D31 whole entry): as above

Take `NCCOB(c1ccccc1)c1ccccc1` [2-aminoethoxydiphenylborate]: the “block of store-dependent Ca2+ entry” value in assay [1] is on record as “completely blocked”. `O=C(Nc1scc(-c2ccc(Br)cc2)c1C(=O)O)c1ccc(C(F)(F)F)nc1` [AA]: the IC50 (usually the concentration at which inhibition is half-maximal) in assay [2] is 1 to 10 µM.

For `O=C(Nc1scc(-c2cc3cccc(O)c3o2)c1C(=O)O)c1cc2cccc(O)c2o1` [AB], the figures for the IC50 in assay [3] and in assay [2] were no more than 0.5 µM and 1 to 10 µM, respectively. The matching figures for `Cc1nnsc1C(=O)Nc1scc(-c2ccc(Br)cc2)c1C(=O)O` [A]: 1 to 10 µM and 1 to 10 µM. For `Cc1nnsc1C(=O)Nc1ccc(-n2nc(C(F)(F)F)cc2C(F)(F)F)cc1` [BTP-2], in assay [4], the “inhibition of SOCE” value was “inhibits” and the inhibition of proliferation result is reported as “inhibits”. Turning to `O=C(Nc1scc(-c2ccc(Br)cc2)c1C(=O)O)c1nc2cccc(F)c2o1` [B], the IC50 in assay [3] and in assay [2] was no more than 0.5 µM each time. On to `O=C(Nc1scc(-c2ccc(Br)cc2)c1C(=O)O)c1nc2c(F)cccc2o1` [C], for which the IC50 in assay [3] and in assay [2] was no more than 0.5 µM each time. As for `O=C(Nc1scc(-c2ccc(Br)cc2)c1C(=O)O)c1cc2ccccn2n1` [Compound I], the half-inhibitory concentration (IC50) in assay [3] and in assay [2] was no more than 0.5 µM in each case. Take `O=C(O)c1c(-c2ccc(Cl)cc2)csc1NC(=O)C(Cl)Cc1ccccc1` (centres unmarked) [D]: the IC50 in assay [3] and in assay [2] was no more than 0.5 µM each time. With `CC(Cc1ccccc1)C(=O)Nc1scc(-c2ccc(Br)cc2)c1C(=O)O` (centres unmarked) [E], the IC50 in assay [3] and in assay [2] was no more than 0.5 µM each time. As for `Cc1ccc(-c2csc(NC(=O)c3cnc4ccccc4n3)c2C(=O)O)c(F)c1F` [F], the IC50 in assay [3] and in assay [2] was no more than 0.5 µM in each case. Turning to `O=C(Nc1scc(-c2ccc(Cl)cc2)c1C(=O)O)c1nc2ccccc2s1` [G], the IC50 in assay [3] and in assay [2] was no more than 0.5 µM each time. On to `COc1cc(C)c(-c2csc(NC(=O)c3cc4ccccc4o3)c2C(=O)O)cc1C` [H], for which the IC50 in assay [3] and in assay [2] was no more than 0.5 µM throughout.

For the molecule `O=C(Nc1scc(-c2ccc(Cl)cc2)c1C(=O)O)c1cc2sccc2s1` [J], the IC50 in assay [3] and in assay [2] was no more than 0.5 µM in each case. For `O=C(O)c1c(-c2ccc(Cl)cc2)csc1NC(=O)C1CCc2ccccc2C1` (centres unmarked) [K], the IC50 in assay [3] and in assay [2] was no more than 0.5 µM each time.

On to `COc1c(F)c(F)cc(C(=O)Nc2scc(-c3ccc(Br)cc3)c2C(=O)O)c1F` [L], for which the IC50 in assay [2] is no more than 0.5 µM.

For the molecule `O=C(Nc1scc(-c2ccc(Cl)cc2)c1C(=O)O)c1ccc(C(F)(F)F)nc1` [M], the IC50 in assay [2] lay within 1 to 10 µM. `COc1cc(C)c(-c2csc(NC(=O)c3cc4ccccc4o3)c2C(=O)O)c(C)c1` [N]: the IC50 in assay [3] and in assay [2] was no more than 0.5 µM in each case. Turning to `O=C(Nc1scc(-c2ccc(Cl)cc2)c1C(=O)O)c1cc2ccccn2n1` [O], the IC50 in assay [3] and in assay [2] was no more than 0.5 µM each time. In the case of `O=C(Nc1scc(-c2ccc(Cl)cc2)c1C(=O)O)c1cnc2ccccc2n1` [P], the IC50 in assay [3] and in assay [2] was no more than 0.5 µM throughout. With `O=C(Nc1scc(-c2ccc(Cl)cc2)c1C(=O)O)c1ccc2scnc2c1` [Q], the IC50 in assay [2] is no more than 0.5 µM. On to `O=C(CCc1cccs1)Nc1scc(-c2ccc(Cl)cc2)c1C(=O)O` [R], for which the IC50 in assay [3] and in assay [2] was no more than 0.5 µM throughout. Turning to `O=C(Nc1scc(-c2ccc(Br)cc2)c1C(=O)O)OCc1ccccc1` [S], in assay [2], the IC50 lay within 1 to 10 µM. On the same count and under the same terms, for `O=C(Nc1scc(-c2ccc(Cl)cc2)c1C(=O)O)c1cc(-c2ccccc2)on1` [T] the value was 0.5 to 1 µM. Consider `O=C(Nc1scc(-c2ccc(Cl)cc2)c1C(=O)O)/C(F)=C/c1ccccc1Cl` [U], for which, in assay [2], the IC50 fell in the range of 1 to 10 µM. For `O=C(Nc1scc(-c2ccc(Cl)cc2)c1C(=O)O)c1ccc([N+](=O)[O-])o1` [V], the IC50 in assay [3] and in assay [2] was no more than 0.5 µM in each case. With `O=C(Nc1scc(-c2ccc(Cl)cc2)c1C(=O)O)c1nc(C2CC2)cs1` [W], the IC50 in assay [3] and in assay [2] was no more than 0.5 µM each time. As for `O=C(Nc1scc(-c2ccc(Cl)cc2)c1C(=O)O)c1cc2nccnc2s1` [X], the IC50 in assay [3] and in assay [2] was no more than 0.5 µM in each case. Turning to `O=C(Nc1scc(-c2ccc(Cl)cc2)c1C(=O)O)c1cc2ccccc2nn1` [Y], the IC50 in assay [2] fell in the range of 1 to 10 µM. With `O=C(Nc1scc(-c2ccc(Br)cc2)c1C(=O)O)c1cn2ccccc2n1` [Z], in assay [2], the IC50 lay within 1 to 10 µM.

These data come from patent US8394848B2, “Compounds that modulate intracellular calcium” (Calcimedica, Inc., priority 2008, dated 2013).
